# How the values were obtained:
# [1] = test system: cell (Vero, T24 or A549 of Example 9; not given); assay: Nucleic acid-introducing ability, luciferase-expressing plasmid (procedure of Example 9); format: cell-based; conditions: for ability of introducing the nucleic acid into a cell: procedure of Example 9, luciferase-expressing plasmid; for Nucleic acid-introducing ability: class of fluorescent count per 1 mg of protein per 1 second, highest of peptide 1.25, 2.5, 5 μM, plasmid 1 μg/mL
# Source text: A cell line established from monkey kidney (Vero cell) and a human bladder cancer cell (T24 cell) purchased from American Type Culture Collection (ATCC) and human lung cancer cell (A549 cell) purchased from Dainippon Pharmaceutical were inoculated on a 24 well culture plate (manufactured by NALGEN NUNC) at 1×10^5 cells/well. Vero cell and A549 cell were cultivated in DMEM (manufactured by Life Technologies Oriental) supplemented with 10% fetal bovine serum (hereinafter referred to as FBS, manufactured by NICHIREI), and T24 cell was cultivated in McCoy's 5a (manufactured by Life Technologies Oriental) supplemented with 10% FBS in 5% CO2 atmosphere at 37° C. for 24 hours. After removing the medium, opti-MEM (manufactured by Life Technologies Oriental) prepared to have the concentration of the luciferase-expressing plasmid prepared in Example 7 of 1 μg/mL and the concentration of the peptide prepared in Example 1 of 1.25, 2.5, or 5 μM was added, and the cells were cultivated for 5 hours. Next, in the case of Vero cell and A549 cell, the culture medium was replaced with DMEM supplemented with 10% FBS, and in the case of T24 cell, the medium was replaced with McCoy's 5a supplemented with 10% FBS, and cultivation was continued in 5% CO2 atmosphere and at 37° C. for another 24 hours. The luciferase activity expressed in the cell was then measured by the method instructed in luciferase assay system (manufactured by Promega). To be more specific, the cells were washed with phosphate-buffered saline (hereinafter referred to as PBS, manufactured by SIGMA), and the cells were lyzed with Passive Lysis Buffer attached to the kit. 20 μL of this cell lysate and 100 μL of the Luciferase Assay Reagent II attached to the kit was added to a fluorescence-measuring plate (Microlite™ 1 plate, manufactured by Dynatech), and after mixing, fluorescence was measured for 1 second by using a multilabel counter (ARVO™ SY1420 MULTILABEL COUNTER, manufactured by Wallac Beltold.
# Concentration of the protein in the cell lysate was measured by mixing 8 μL of the cell lysate and 200 μL of the protein assay solution (manufactured by Biorad) with 792 μL of ultrapure water in a disposable cuvette (UV fluorescent cuvette A204X, manufactured by Funakoshi), allowing the mixture to stand for 5 minutes at room temperature, and measuring the absorption at 595 nm with a spectrophotometer (DU640, manufactured by Beckman). Bovine serum albumin (BSA) was used for the standard protein. By using the thus obtained results, count per 1 second per 1 mg of protein of the cell lysate was calculated to thereby use the count as the luciferase activity, and the highest count in the three conditions of different peptide concentration was designated the gene-introducing ability of the peptide.
# It is to be noted that the nucleic acid-introducing ability was classified as described below on the bases of the fluorescent count per 1 mg of protein per 1 second (cps/mg protein).
# [2] = Affinity by surface plasmon resonance (Biacore 2000), flow cell 1; format: binding; conditions: SPR, HPA chip, 0.1 mg/mL BSA
# Method: (§1) The specific affinity of the peptide for phosphatidyl serine was evaluated by means of surface plasmon resonance (SPR) using Biacore 2000 (manufactured by Biacore). To be more specific, phosphatidyl choline was immobilized on flow cell 1, and 50% of phosphatidyl serine and 50% of phosphatidyl choline were immobilized on flow cell 2 of HPA chip (manufactured by Biacore), and ability of the peptide to bind to the phospholipid was evaluated in the presence of 0.1 mg/mL BSA to thereby evaluate the affinity.
# [3] = Affinity by surface plasmon resonance (Biacore 2000), flow cell 2; format: binding; conditions: SPR, HPA chip, 0.1 mg/mL BSA; compared with flow cell 1
# Method: as §1
# [4] = Measurement of CD spectrum; format: physicochemical
# Method: The peptide dissolved in 10 mM phosphate buffer (pH=7) containing 50 mM NaCl was evaluated for its CD spectrum in the presence and in the absence of 5 mM SDS by using a circular dichroism spectrophotometer (J-500A, manufactured by JASCO). The cell length was 1 mm. The measurement was conducted at 35° C. for 6 times in total. FIGS. 7 to 9 are respectively views showing mean residue ellipticity in CD spectroscopy of the peptide of SEQ ID NO:1, the peptide of SEQ ID NO:4 and the peptide of SEQ ID NO:16. As evident in FIGS. 7 to 9, the mean residue ellipticity obtained in the presence of SDS was the so called W curve and local minimums were found in the areas at the wavelength of 205 to 210 nm and 220 to 225 nm, and α-helix structure was thereby confirmed.
# [5] = test system: Vero cell; assay: Storage stability of the complex with nucleic acid (luciferase activity); format: cell-based, monkey; conditions: luciferase-expressing plasmid 2 μg/mL, peptide 5 μM; reagents per attached protocol
# Method: Luciferase-expressing plasmid was introduced in Vero cell in accordance with the procedure described in Example 9 by using the opti-MEM prepared to have a concentration of the luciferase-expressing plasmid prepared in Example 7 of 2 μg/mL and a concentration of the peptide of SEQ ID NO:4 prepared in Example 1 of 5 μM to thereby measure the luciferase activity. The opti-MEM containing plasmid and peptide used were the one which had been prepared immediately before the gene introduction, and the one which had been prepared 1 week (7 days) in advance and stored at 4° C.
# For the purpose of reference, gene-introducing activity of Lipofectin and LipofectAMINE 2000 (manufactured by Life Technologies Oriental), which are commercially available plasmid-introducing agents, were also evaluated by mixing these reagent with luciferase-expressing plasmid in accordance with the attached protocol, and evaluating their gene-introducing activity after storing at 4° C. for 1 week.
# [6] = Affinity for phosphatidyl serine (EIA, inhibition of human Factor VIII binding); conditions: class of IC50 for inhibiting human Factor VIII binding, 5% BSA
# Method: The specific affinity of the peptide for phosphatidyl serine was evaluated by measuring activity of the peptide for inhibiting the binding of the human Factor VIII to phosphatidyl serine by using human Factor VIII which is known to bind to phosphatidyl serine but not to phosphatidyl choline in the presence of serum albumin. To be more specific, 100 μL of ethanol solution containing 10 μg/mL of phospholipids at a phosphatidyl serine (manufactured by SIGMA): phosphatidyl choline (manufactured by SIGMA) ratio of 3:7 was added to the wells of a 96 well plate (Immulon I, manufactured by Dynatech), and exsiccated by using a centrifugal evaporator (EC-95C, manufactured by Sakuma Seisakusho) at 40° C. for 40 minutes. 200 μL each of TBS (10 mM Tris-HCl (pH 7.4) containing 1% bovine serum albumin (BSA Fraction V, hereinafter referred to as BSA, manufactured by Seikagaku Corporation) and 0.9% (W/V) NaCl solution were added to each well, and the wells were blocked by allowing the plate to stand at 37° C. for 2.5 hours. After washing the plate with water, 100 μL of TBS solution supplemented with 5% BSA mixed with human Factor VIII (manufactured by American Diagnostica) at a final concentration 1 μg/mL and the peptide of predetermined dose prepared in Example 1 was added to each well, and the reaction was allowed to take place at 4° C. for 24 hours.
# After the completion of the reaction, the human Factor VIII that became bound to the phosphatidyl serine was measured by enzyme immunoassay (EIA) in accordance with the general procedure described in a book (“Enzyme Immunoassay (3rd ed.)”, Eiji Ishikawa et al., Igaku-Shoin, 1987). To be more specific, the measurement was conducted by using anti-human Factor VIII mouse monoclonal antibody (ESH8, manufactured by American Diagnostica) for the primary antibody, horseradish peroxidase-labeled anti-mouse IgG antibody (P0260, manufactured by Daco) for the secondary antibody, and tetramethylbenzidine for the chromogenic substrate, and measuring the absorption at a wavelength of 450 nm by using a reference wavelength of 630 nm on a spectrophotometer (NJ-2100, manufactured by Intermed).
# Intensity of the affinity of the peptide for the phosphatidyl serine was evaluated by using the value obtained by subtracting the absorption of the well having no human Factor VIII added thereto from the absorption of the well having only the human Factor VIII added thereto as the control value (100%), and designating the peptide concentration at which the value 0.5 was obtained when the value obtained by subtracting the absorption of the well having only the peptide added thereto from the absorption of the well having a mixture of the human Factor VIII and the peptide added thereto were divided by the control value as the IC50 value, and evaluating the intensity to be ++ when the IC50 value was up to 1 μM, and +when the intensity was more than 1 μM but not more than 10 μM. It is to be noted that the specific affinity was evaluated to be none when the intensity was 10 μM or more.
# [7] = Measurement of turbidity in BSA; format: physicochemical; conditions: BSA 1%, peptide 50 μM, absorbance at 600 nm
# Method: The solutions were evaluated for their absorbance at a wavelength of 600 nm by using a spectrophotometer (DU640, manufactured by Beckman).
IC50 [6],Substance,ability of introducing the nucleic acid into a cell [1],binding to flow cell 1 (phosphatidyl choline) [2],"binding to flow cell 2 (50% phosphatidyl serine, 50% phosphatidyl choline) [3]","α-helix structure in CD spectrum in the presence of SDS ([4]; 5 mM SDS, 10 mM phosphate buffer pH 7, 50 mM NaCl, 35° C.)","gene-introducing activity after storing the complex at 4° C. for 1 week, relative to freshly prepared complex [5]",Nucleic acid-introducing ability [1],"α-helix structure in CD spectrum in the absence of SDS ([4]; aqueous solution solely containing an inorganic salt, pH 7, 35° C.)",OD 600 [7]
,"SEQ ID NO:25: comparative peptide, same amino acid composition as SEQ ID NO:1 but an utterly random amino acid sequence (TIRYRPSHQIRLRAVLHLWIRYRPSHQIRLRAVLHWS; synthetic peptide using an automatic peptide synthesizer) [reference compound]",neither the nucleic acid-introducing ability,no binding,no binding,no α-helix structure is found,,,,
,SEQ ID NO: 4: peptide of SEQ ID NO:1 with one or two locations substituted in the 18 amino acid sequence (TRYLRIHPRSWLHQIALRLRYLRIHPRSWLHQIALRS; synthetic peptide using an automatic peptide synthesizer),,,,,substantially equivalent,"4+ (10,000,000 or more)",do not take α-helix structure,
1000 to 10000 nM,SEQ ID NO: 8: peptide of SEQ ID NO:1 with one or two locations substituted in the 18 amino acid sequence (TRYLRIHPKSWVHQIALRLRYLKIHPRSWVHQIALRS; synthetic peptide using an automatic peptide synthesizer),,,,,,"3+ (1,000,000 to less than 10,000,000)",,0.01>
1000 to 10000 nM,SEQ ID NO: 10: peptide of SEQ ID NO:1 with one or two locations substituted in the 18 amino acid sequence (TRSLRIHPRSWVHQIALRLRSLRIHPRSWVHQIALRS; synthetic peptide using an automatic peptide synthesizer),,,,,,"3+ (1,000,000 to less than 10,000,000)",,0.01>
1000 to 10000 nM,SEQ ID NO: 11: peptide of SEQ ID NO:1 with one or two locations substituted in the 18 amino acid sequence (TRYLRIHPRLWVHQIALRLRYLRIHPRLWVHQIALRS; synthetic peptide using an automatic peptide synthesizer),,,,,,"3+ (1,000,000 to less than 10,000,000)",,0.01>
< 1000 nM,SEQ ID NO: 15: peptide of SEQ ID NO:1 with one or two locations substituted in the 18 amino acid sequence (TRYLRIRPRSWVRQIALRLRYLRIRPRSWVRQIALRS; synthetic peptide using an automatic peptide synthesizer),,,,,,"2+ (100,000 to less than 1,000,000)",,0.01>
< 1000 nM,SEQ ID NO: 17: peptide of SEQ ID NO:1 with one or two locations substituted in the 18 amino acid sequence (TRSLRIHPRLWVHQIALRLRSLRIHPRLWVHQIALRS; synthetic peptide using an automatic peptide synthesizer),,,,,,"2+ (100,000 to less than 1,000,000)",,0.01>
< 1000 nM,SEQ ID NO: 19: peptide of SEQ ID NO:1 with three locations substituted in the 18 amino acid sequence; preferred peptide (TRYLRLHPRSWLHQLALRLRYLRLHPRSWLHQLALRS; synthetic peptide using an automatic peptide synthesizer),,,,,,"4+ (10,000,000 or more)",,0.01>
< 1000 nM,SEQ ID NO: 23: deletion mutant of the peptide of SEQ ID NO:1 (TIHPRSWVHQIALRLRYLRIHPRSWVHQIAS; synthetic peptide using an automatic peptide synthesizer),had the ability of introducing the nucleic acid into a cell,,,,,"2+ (100,000 to less than 1,000,000)",,0.01>

# From patent publication US20040171795A1, “Novel peptides” (priority 2000, published 2004)
